Source: patent US20170313974A1, “Modulation of Tissue Fatty Acid Composition of a Host by Human Gut Bacteria” (University College Cork, National University of Ireland, priority 2007, published 2017)
Marks after values point to notes of the source that are not given here.

What was measured:
[1] = tested on: BALB/c mice; assay: Tissue fatty acid composition, BALB/c α-linolenic acid feeding trial (8 weeks); format: in vivo
Procedure: Female BALB/c mice were purchased from Harlan ltd. (Briester, Oxon, UK) at 8 weeks of age and fed a normal diet for 1 week to stabilize all metabolic conditions. […] Mice were maintained at 4 per cage and exposed to a 12-h light:dark cycle at a constant temperature of 25° C. The mice were held at the Biological Services Unit in University College Cork. The animal experimentation was performed according to the guidelines for the care and use of laboratory animals approved by the Department of Health and Children.
(§1) Animals were fed standard mouse chow ad libitum with free access to water at all times. […] Following 8 weeks on experimental diets, the animals were sacrificed by cervical dislocation. Liver, adipose tissue and brain were removed from the carcasses, blotted dry on filter paper, weighed and frozen in liquid nitrogen. All samples were stored at −80° C. until processed.
Lipids were extracted according to the method by O'Fallon et al. (20). Briefly, samples were cut into 1.5-mm rectangular strips and placed into a screw-cap Pyrex culture tube together with 0.7 ml of 10 N KOH in water and 5.3 ml of MeOH. The tubes were incubated in a 55° C. water bath for 1.5 h with vigorous hand-shaking every 20 min. After cooling below room temperature, 0.58 ml of 24 N H2SO4 in water was added. The tubes were mixed by inversion and with precipitated K2SO4 present incubated again in 55° C. for 1.5 h with hand-shaking every 20 min. FAME were recovered by addition of 3 ml hexane and vortex mixed and separated by GLC (Varian 3400, Varian, Walnut Creek, Calif. USA fitted with a flame ionization detector) using a Chrompack CP Sil 88 column (Chrompack, Middleton, The Netherlands, 100 m×0.25 mm i.d., 0.20 μm film thickness) and He as carrier gas. The column oven was initially programmed at 80° C. for 8 min, and increased 8.5° C./min to a final column temperature of 200° C. The injection volume was 0.6 μl, with automatic sample injection on a SPI 1093 splitless on-column temperature programmable injector. Data were recorded and analysed on a Minichrom PC system (VG Data System, Manchester, U.K.). Peaks were identified with reference to retention times of fatty acids in a standard mixture. All fatty acid results are shown as mean±standard error mean (SEM) g/100 g FAME.

[2] = Body weight gain, BALB/c α-linolenic acid trial; format: in vivo, BALB/c mice; conditions: 8 week trial period
Procedure: as §1

[3] = tested on: Myeloperoxidase (MPO) activity in colonic homogenates; assay: Colonic mucosal myeloperoxidase (MPO) activity in SCID mice with colitis; format: in vivo; conditions: 10 weeks, mean ± SD, n = 8
Procedure: (§2) Materials and Methods Severe Combined Immuno Deficient (SCID) mice were used in this study, which had been induced with colitis through adoptive transfer of splenic CD4^+ CD45RB^high T cells from BALB/c mice. […] Ten weeks after colitis induction, cytokine production by splenocytes was measured in vitro by ELISA, myeloperoxidase (MPO) activity was determined in colonic homogenates and fatty acid composition in liver, adipose tissue, cecum and colon was determined by gas liquid chromatography (GLC). Similar studies have also been conducted in pigs (data not shown here) and similar results obtained.
(§3) SCID mice were purchased from Harlan ltd. (Briester, Oxon, UK) at 6 weeks of age and fed a normal diet for 1 week to stabilize all metabolic conditions. Each cage contained one mouse. Mice were exposed to a 12-h light:dark cycle and maintained at a constant temperature of 25° C. One week after arrival, mice were divided into five groups for different dietary treatments (Table I).
SCID mice were induced with colitis through adoptive transfer of the CD4^+ CD45RB^high subpopulation of CD4+ T cells from normal BALB/c mice (Mackay et al. 1998). […]
Myeloperoxidase activity was measured according to the method by Krawisz et al. (24). […] The absorbance (OD) was measured spectrophotometrically at 450 nm at 1 min intervals for 15 min. […] Results are expressed as U/mg protein.

[4] = tested on: BALB/c mice; assay: Tissue and faecal fatty acid composition, BALB/c LA feeding trial (8 weeks); format: in vivo
Procedure: Male BALB/c mice were purchased from Harlan Ltd. (Briester, Oxon, UK). One week after arrival, these mice were divided into two groups (n=9) for different dietary treatments. […] Group B received 1% LA in their diet. For LA treatment, a powdered diet blended with the drug was administered for 8 weeks to yield a dose of drug at approximately 90 mg/day/mouse (this is based on preliminary experiments by Bassaganya-Riera et al. (1) that established an optimal dose of fatty acids of 1 g/100 g).
After 8 weeks on experimental diets, the mice were sacrificed by cervical dislocation. Livers, hearts, colons, small intestines and cecums were removed from the carcasses, blotted dry on filter paper, weighed and frozen in liquid nitrogen. All samples were stored at −80° C. until processed.
(§4) Lipids were extracted with Chloroform:Methanol 2:1 v/v according to Folch et al. (25). Briefly, tissue or faecal samples, ˜1 g liver, 300 mg small intestine, 200 mg adipose tissue, 250 mg colon, 800 mg cecum or 100 mg feaces were homogenised in over a 25 fold excess of CHCl3:CH3OH (2:1 v/v) and washed with 0.88% KCl solution. Excess solvent was dried down under a gentle stream of N2 at 40° C. and lipids were stored at −20° C. in 1 ml chloroform. Fatty acid methyl esters (FAME) were prepared using first 10 ml 0.5N NaOH in methanol for 10 min at 90° C. followed by 10 ml 14% BF3 in methanol for 10 min at 90° C. (26). FAME was recovered with hexane. Prior to GC analysis samples were dried over 0.5 g of anhydrous sodium sulphate for an hour and stored at −20° C. FAME were separated by gas liquid chromatography (GLC Varian 3400, Varian, Walnut Creek, Calif. USA fitted with a flame ionization detector) using a Chrompack CP Sil 88 column (Chrompack, Middleton, The Netherlands, 100 m×0.25 mm i.d., 0.20 μm film thickness) and He as a carrier gas. The column oven was programmed to be held initially at 80° C. for 8 minutes then increased 8.5° C./min to a final column temperature of 200° C. The injection volume used was 0.6 μl with automatic sample injection with a splitless on SPI on-column temperature programmable injector. Data was recorded and analysed on a Minichrom PC system (VG Data System, Manchester, U.K.). Tri-heptadecanoate (Sigma) was used as an internal standard, and peaks were identified with reference to retention times of fatty acids in a standard mixture. All fatty acid results are shown as mean±SD (n=8) g/100 g FAME.

[5] = tested on: SCID mice; assay: Tissue fatty acid composition, SCID mouse colitis feeding study (10 weeks); format: in vivo
Procedure: as §2, §3
For linoleic acid and c9t11 CLA treatment, a powdered diet blended with the drug was administered for 10 weeks to yield a dose of drug at approximately 90 mg/day/mouse (this is based on preliminary experiments by Bassaganya-Riera et al. (22) that established an optimal dose of fatty acids of 1 g/100 g of diet).
After the adoptive transfer, mice were weighed three times a week and examined for clinical signs of disease associated with colitis (ie. rectal bleeding, diarrhoea and rectal prolapse). After 10 weeks on experimental diets, the mice were sacrificed by cervical dislocation. Livers, adipose tissue, spleens, colons and cecums were removed from the carcasses, blotted dry on filter paper, weighed and frozen in liquid nitrogen. All samples were stored at −80° C. until processed. The colon was divided into different sections for MPO activity and fatty acid composition.
as §4

[6] = tested on: splenocytes; assay: Cytokine production by stimulated splenocytes of fed SCID mice with colitis; format: in vivo; conditions: compared to control
Procedure: as §2
Cytokine production in response to defined stimuli, in vitro, was measured using enzyme-linked immunosorbent assay (ELISA). Splenocyte isolation was performed using an erythrocyte lysing kit (R&D Systems). The spleens of all mice were removed at the time of sacrifice, blotted on filter paper and weighed. Each spleen was immediately placed in Hanks' buffer containing 10% fetal calf serum. The spleen was teased apart and sieved through a cell strainer into a 50 ml centrifuge tube. Cells were centrifuged for 10 minutes at 200 g. The cells were resuspended in 2 ml M-lyse buffer, which lyses red blood cells, and incubated for 8 minutes at room temperature. Lysis was deactivated using wash buffer and the cell suspension was centrifuged for 10 minutes at 200 g. Cells were resuspended in DMEM (10% fetal calf serum, 1% Pen/Strep, Sigma) and diluted to 1×10^6 cells/ml for in vitro culturing. The isolated lymphocytes were cocultured with the proinflammatory bacterium Salmonella typhimurium UK1 (1×10^6 cells/ml) and with antiCD3-antiCD28 monoclonal antibodies for 48 hours at 37° C. Cell supernatants were isolated and stored at −80° C. Cytokine analysis was performed on the supernatants using a BD™ Cytometric Bead Array (CBA) Mouse Inflammation Kit (BD Biosciences, US).

[7] = adipose tissue, 8 weeks, SEM, n = 8

## CC/C=C\C/C=C\C/C=C\CCCCCCCC(=O)O [B, α-linolenic acid]
[1]; [7]
  C16:0 palmitic acid, adipose tissue: 28.73 ± 2.16^c g/100 g FAME
  C16:1c9 palmitoleic acid, adipose tissue: 6.07 ± 2.01 g/100 g FAME
  C18:0 stearic acid, adipose tissue: 8.00 ± 2.33 g/100 g FAME
  C18:1c9 oleic acid, adipose tissue: 14.83 ± 3.01 g/100 g FAME
  C18:2n-6 linoleic acid, adipose tissue: 18.80 ± 0.81^c g/100 g FAME
  C18:3n-3 linolenic acid, adipose tissue: 7.35 ± 2.15^c,d g/100 g FAME
  C18:3n-6 γ-linolenic acid, adipose tissue: 0.13 ± 0.03 g/100 g FAME
  C18:4n-3 stearidonic acid, adipose tissue: 0.12 ± 0.03 g/100 g FAME
  C20:3n-6 dihomo-γ-linolenic acid, adipose tissue: 0.30 ± 0.09 g/100 g FAME
  C20:4n-6 arachidonic acid, adipose tissue: 5.27 ± 2.04^c,d g/100 g FAME
  C20:5n-3 eicosapentaenoic acid, adipose tissue: 2.37 ± 0.76^c,d g/100 g FAME
  C22:5n-3 docosapentaenoic acid, adipose tissue: 0.55 ± 0.14^c,d g/100 g FAME
  C22:6n-3 docosahexaenoic acid, adipose tissue: 1.17 ± 0.36 g/100 g FAME
  n-6/n-3, adipose tissue: 2.15 ± 0.15^c,d
[1]; brain, 8 weeks, SEM, n = 8
  C16:0, brain: 32.38 ± 0.44^c g/100 g FAME
  C16:1c9, brain: 0.94 ± 0.03^a,c,d g/100 g FAME
  C18:0, brain: 19.87 ± 0.14^a g/100 g FAME
  C18:1c9, brain: 17.61 ± 0.24^ g/100 g FAME
  C18:2n-6, brain: 1.54 ± 0.10^a,c,d g/100 g FAME
  C20:4n-6, brain: 6.88 ± 0.12^c,d g/100 g FAME
  C20:5n-3, brain: 0.15 ± 0.01^c,d g/100 g FAME
  C22:5n-3, brain: 0.24 ± 0.01^c g/100 g FAME
  C22:6n-3, brain: 8.87 ± 0.30^a g/100 g FAME
  n-6/n-3, brain: 0.89 ± 0.03^a
[1]; brain, 8 weeks, SEM, n = 8, ND = not detected
  C18:3n-3, brain: 0.18 ± 0.02^a,c,d g/100 g FAME
[1]; compared with group C and group D, p<0.001
  higher concentrations of α-linolenic acid and EPA in liver and adipose tissue: 10 fold
[1]; compared with group D
  arachidonic acid/EPA ratio in adipose tissue, fold lower: ~20 fold
  arachidonic acid/EPA ratio in liver, fold lower: approximately 30 fold
[1]; liver, 8 weeks, SEM, n = 8
  C16:0 palmitic acid, liver: 23.89 ± 0.71^c,d g/100 g FAME
  C16:1c9 palmitoleic acid, liver: 2.07 ± 0.18^a,d g/100 g FAME
  C18:0 stearic acid, liver: 12.36 ± 0.44^a,d g/100 g FAME
  C18:1c9 oleic acid, liver: 10.16 ± 0.62^c,d g/100 g FAME
  C18:2n-6 linoleic acid, liver: 18.32 ± 0.21^d g/100 g FAME
  C18:3n-3 linolenic acid, liver: 9.47 ± 0.64^c,d g/100 g FAME
  C18:3n-6 γ-linolenic acid, liver: 0.17 ± 0.01^c,d g/100 g FAME
  C18:4n-3 stearidonic acid, liver: 0.16 ± 0.01^c,d g/100 g FAME
  C20:3n-6 dihomo-γ-linolenic acid, liver: 0.61 ± 0.02^a g/100 g FAME
  C20:4n-6 arachidonic acid, liver: 5.57 ± 0.14^a,c,d g/100 g FAME
  C20:5n-3 eicosapentaenoic acid, liver: 3.07 ± 0.12^a,c,d g/100 g FAME
  C22:5n-3 docosapentaenoic acid, liver: 0.94 ± 0.05^c,d g/100 g FAME
  C22:6n-3 docosahexaenoic acid, liver: 5.66 ± 0.28^d g/100 g FAME
  n-6/n-3, liver: 1.30 ± 0.07^c,d
[2]
  body weight gain: did not significantly influence

## CCCCC/C=C\C/C=C\CCCCCCCC(=O)O [LA, linoleic acid]
[3]
  MPO colon: 1.16 ± 0.23 U/mg protein
[4]; faeces after 8 weeks
  LA in faeces: 27.4±7.16
[4]; faeces harvested after 8 weeks
  c9, t11 CLA in faeces: 0.35±0.25 g/100 g FAME
[4]; large intestine, 8 weeks
  c9, t11 CLA in large intestine: 0.07±0.02 g/100 g FAME
[4]; liver, 8 weeks
  c9, t11 CLA in liver: 0.05±0.03 g/100 g FAME
[4]; small intestine, 8 weeks
  c9, t11 CLA in small intestine: 0.03±0.01
[5]; cecum digesta, mean ± SD, n = 8
  c9, t11 CLA in cecum digesta: 0.08 ± 0.02^ g/100 g FAME
[5]; faeces
  c9, t11 CLA in faeces: 0.09 g/100 g FAME
[5]; liver, mean ± SD, n = 8
  c9, t11 CLA in liver: 0.01 ± 0.01^2 g/100 g FAME
[6]
  proinflammatory cytokines: no reduction
